Experiment: PK of compound of Formula (Ia) after single subcutaneous dose of solution formulations in beagle dogs
Type: in vivo
Conditions: male, beagle, dog, plasma, sc, 12 mg/kg, beagle dogs, SC 12 mg/kg
Protocol: Formulations containing the compound of Formula (Ia), or a pharmaceutically acceptable salt thereof, were prepared as solutions and optionally administered subcutaneously or intramuscularly to rats, rabbits, and/or dogs.
(§1) A solution of about 400 mg/mL of the compound of Formula (Ia) having 17.00 w/w % water, 36.40 w/w % PEG 300, 35.20 w/w % of a sodium salt of a compound of Formula (Ia), 5.00 w/w % ethanol, and 6.40 w/w % poloxamer 188 was prepared. The solution was administered subcutaneously to male beagle dogs at a dose level of about 12 mg/kg and male Wistar Han rats at a dose level of about 50 mg/kg. The pharmacokinetic profiles were determined, and the results for dogs are summarized in Table and Table, while the results for rats are summarized in Table and Table below.
as §1, with “500” for “400”, “14.06” for “17.00”, “30.12” for “36.40”
A solution of about 300 mg/mL of the compound of Formula (Ia) having 23.33 w/w % water, 48.99 w/w % PEG 300, 26.47 w/w % of a sodium salt of a compound of Formula (Ia), and 1.21 w/w % poloxamer 188 was prepared. The solution was administered subcutaneously to male beagle dogs at a dose level of about 6 mg/kg and male Wistar Han rats at a dose level of about 50 mg/kg. The pharmacokinetic profiles were determined, and the results for dogs are summarized in Table and Table, while the results for rats are summarized in Table and Table below.
as §1, with “18.80” for “17.00”, “40.25” for “36.40”, “34.38” for “35.20”, “1.57” for “6.40”
as §1, with “500” for “400”, “16.29” for “17.00”, “34.88” for “36.40”, “41.92” for “35.20”, “1.91” for “6.40”
as §1, with “20.90” for “17.00”, “44.72” for “36.40”, “and 34.38” for “35.20”, “(Ia)” for “(Ia), 5.00 w/w % ethanol, and 6.40 w/w % poloxamer 188”
A solution of about 400 mg/mL of the compound of Formula (Ia) having 19.90 w/w % water, 42.59 w/w % PEG 300, 34.38 w/w % of a sodium salt of a compound of Formula (Ia), and 3.13 w/w % poloxamer 188 was prepared. The solution was administered subcutaneously to male beagle dogs at a dose level of about 12 mg/kg and male Wistar Han rats at a dose level of about 50 mg/kg. […]

[1] = 400 mg/mL solution W (5.00% ethanol, 1.57% poloxamer 188), Mean n = 3
[2] = 400 mg/mL solution W (5.00% ethanol, 1.57% poloxamer 188), animals #1-#3
[3] = 400 mg/mL solution Y (water, PEG 300), Mean n = 3
[4] = 400 mg/mL solution Y (water, PEG 300), animals #1-#3
[5] = 400 mg/mL solution Z (3.13% poloxamer 188), animals #1-#3
[6] = 400 mg/mL solution Z (3.13% poloxamer 188), Mean n = 3
[7] = 500 mg/mL solution X (5.00% ethanol, 1.91% poloxamer 188), Mean n = 3
[8] = 500 mg/mL solution X (5.00% ethanol, 1.91% poloxamer 188), animals #1-#3

CC(C)(C#Cc1ccc(-c2ccc(Cl)c3c(NS(C)(=O)=O)nn(CC(F)(F)F)c23)c([C@H](Cc2cc(F)cc(F)c2)NC(=O)Cn2nc(C(F)(F)F)c3c2C(F)(F)[C@@H]2C[C@H]32)n1)S(C)(=O)=O [compound of Formula (Ia)]
concentration at 96 h [1]: 43.5 nM | concentration at 168 h [1]: 40.3 nM | concentration at 336 h [1]: 133 nM | concentration at 504 h [1]: 121 nM | concentration at 672 h [1]: 145 nM | concentration at 840 h [1]: 82.4 nM | concentration at 1008 h [1]: 71.7 nM | concentration at 1008 h [2]: 80.7 nM | concentration at 1344 h [1]: 80.7 nM | concentration at 1344 h [2]: 72.3 nM | concentration at 1680 h [1]: 34.9 nM | concentration at 1680 h [2]: 28.8 nM | concentration at 2016 h [1]: 35.3 nM | concentration at 2016 h [2]: 25.8 nM | concentration at 2352 h [1]: 21.9 nM | concentration at 2352 h [2]: 16.8 nM | concentration at 2688 h [1]: 13.3 nM | concentration at 2688 h [2]: 9.87 nM | concentration at 3024 h [1]: 11.4 nM | concentration at 3024 h [2]: 10.5 nM | concentration at 3360 h [1]: 7.4 nM | concentration at 3360 h [2]: 6.7 nM | concentration at 3696 h [1]: 4.7 nM | concentration at 4032 h (400 mg/mL solution W (5.00% ethanol, 1.57% poloxamer 188), 4032 h, Mean n = 3): 5.6 nM | concentration at 4368 h (400 mg/mL solution W (5.00% ethanol, 1.57% poloxamer 188), 4368 h, Mean n = 3): 5.7 nM | concentration at 1 h [3]: 9.61 nM | concentration at 3 h [3]: 17.9 nM | concentration at 8 h [3]: 33.9 nM | concentration at 24 h [3]: 69.9 nM | concentration at 48 h [3]: 77.1 nM | concentration at 72 h [3]: 58.5 nM | concentration at 72 h [4]: 73.6 nM | concentration at 96 h [3]: 58.4 nM | concentration at 96 h [4]: 73.8 nM | concentration at 168 h [3]: 47.8 nM | concentration at 168 h [4]: 41.2 nM | concentration at 336 h [3]: 164 nM | concentration at 336 h [4]: 163 nM | concentration at 504 h [3]: 248 nM | concentration at 504 h [4]: 247 nM | concentration at 672 h [3]: 205 nM | concentration at 672 h [4]: 229 nM | concentration at 840 h [3]: 123 nM | concentration at 840 h [4]: 136 nM | concentration at 1008 h [3]: 95.8 nM | concentration at 1008 h [4]: 119 nM | concentration at 1334 h [3]: 58.2 nM | concentration at 1334 h [4]: 70.5 nM | concentration at 1680 h [3]: 28.4 nM | concentration at 1680 h [4]: 27.2 nM | concentration at 2016 h [3]: 18.6 nM | concentration at 2016 h [4]: 17.7 nM | concentration at 2352 h [3]: 15.4 nM | concentration at 2352 h [4]: 18.1 nM | concentration at 2688 h [3]: 9.47 nM | concentration at 2688 h [4]: 8.23 nM | concentration at 3024 h [3]: 6.15 nM | concentration at 3024 h [4]: 5.55 nM | concentration at 3360 h [3]: 5.11 nM | concentration at 3696 h [3]: 3.76 nM | concentration at 1 h (400 mg/mL solution Z (3.13% poloxamer 188), Mean): 1.58 nM | concentration at 1 h [5]: 1.66 nM | concentration at 3 h [6]: 5.83 nM | concentration at 8 h [6]: 34 nM | concentration at 24 h [6]: 80.5 nM | concentration at 48 h [6]: 61.6 nM | concentration at 72 h [6]: 65.1 nM | concentration at 72 h [5]: 89.8 nM | concentration at 96 h [6]: 70.6 nM | concentration at 168 h [6]: 60.6 nM | concentration at 336 h [6]: 172 nM | concentration at 504 h [6]: 228 nM | concentration at 504 h [5]: 301 nM | concentration at 672 h [6]: 117 nM | concentration at 672 h [5]: 144 nM | concentration at 840 h [6]: 95.7 nM | concentration at 840 h [5]: 107 nM | concentration at 1008 h [6]: 79.9 nM | concentration at 1008 h [5]: 93.3 nM | concentration at 1334 h [6]: 50.2 nM | concentration at 1334 h [5]: 51.6 nM | concentration at 1680 h [6]: 24.2 nM | concentration at 2016 h [6]: 15.2 nM | concentration at 2352 h [6]: 8.85 nM | concentration at 2688 h [6]: 6.06 nM | concentration at 3024 h [6]: 5.61 nM | concentration at 3024 h [5]: 3.65 nM | concentration at 3360 h [6]: 3.41 nM | concentration at 3696 h [6]: 1.75 nM | concentration at 1 h [7]: 12.1 nM | concentration at 3 h [7]: 15.2 nM | concentration at 3 h [8]: 19.4 nM | concentration at 8 h [7]: 26.1 nM | concentration at 8 h [8]: 22.3 nM
